Assay results as given in patent publication US10933141B2, “Formulations with reduced degradation of polysorbate” (Genentech, Inc., priority 2015, dated 2021).
Entries after “also recorded” stand apart in the source; their conditions may differ.

Target: T1, porcine pancreatic lipase (PPL) (Sus scrofa, UniProt P00591)
T1 construct: purchased Sigma Aldrich Inc. (St. Louis, Mo.)
T1 sequence (P00591 1-450): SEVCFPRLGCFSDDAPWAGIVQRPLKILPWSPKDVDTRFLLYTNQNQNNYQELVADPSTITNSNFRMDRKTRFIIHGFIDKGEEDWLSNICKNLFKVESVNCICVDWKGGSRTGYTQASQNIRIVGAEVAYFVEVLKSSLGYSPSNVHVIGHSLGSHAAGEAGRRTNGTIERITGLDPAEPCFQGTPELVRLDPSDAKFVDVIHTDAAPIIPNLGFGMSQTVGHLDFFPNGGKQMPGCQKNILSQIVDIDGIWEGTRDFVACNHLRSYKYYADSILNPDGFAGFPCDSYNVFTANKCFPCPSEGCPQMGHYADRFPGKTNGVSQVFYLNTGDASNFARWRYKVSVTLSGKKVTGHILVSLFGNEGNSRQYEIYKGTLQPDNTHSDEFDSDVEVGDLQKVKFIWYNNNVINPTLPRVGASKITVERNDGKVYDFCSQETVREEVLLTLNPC
Assay: Enzymatic degradation of PS20 by PPL, 4.5 hour digestion, PS20 by RP-ELSD
Format: biochemical
Conditions: for decrease in PS20: 0.02% PS20, pH 5.5, 15 μg/mL PPL 4.5 hours room temperature, excipient 15% w/v (cyclodextrins 106 mM); for inhibitory effect on enzymatic PS20 degradation (in words): 0.02% PS20, 15 μg/mL PPL 4.5 hours, excipient 15% w/v (methionine 10 mg/mL)
Procedure: Polysorbate concentration was determined using reverse phase ultra-performance liquid chromatography using evaporative light scattering detection (RP-ELSD). Samples were analyzed using an Agilent 1100 series high performance liquid chromatography system (HPLC) fitted with a Waters Oasis MAX cartridge column (20×2.1 mm, 30 μm particle size). The HPLC system was set up with a switching valve directing column flow-through to either waste or a Varian 380-LC evaporative light scattering detector set to 100° C. The mobile phases consisted of 2% formic acid in water (Pump A) and 2% formic acid in isopropanol (Pump B). The pump gradient was isocratic at 10% pump B during equilibration, linear to 20% pump B for 1 minute, isocratic at 20% pump B for 2.4 minutes, linear to 100% pump B for 0.1 minutes, isocratic at 100% pump B for 1.1 minutes, linear to 10% pump B for 0.1 minutes, and finally isocratic at 10% pump B for 1.9 minutes. The switching valve directed column flow-through to waste at the beginning of every injection, and then directed flow to the detector after 2.4 minutes until the end of the gradient. In order to quantitate the PS20 concentration, a standard curve was generated by injecting 20 μL of solutions containing between 0% w/v and 0.4% w/v PS20.
Several excipients were tested for their ability to protect PS20 against enzymatic hydrolysis including HP-α-CD, HP-β-CD, HP-γ-CD, SBE-β-CD, PVP, PEG 1500, sucrose, and methionine. Solutions of each excipient in pH 5.5 buffer were prepared containing a final concentration of 0.02% PS20 after enzyme addition. The concentration of HP-α-CD, HP-β-CD, HP-γ-CD, and SBE-β-CD in the excipient solutions was 106 mM. […] The remaining excipients (PVP, PEG 1500, sucrose) were added to 15% w/v to match the % w/v of HP-β-CD. Samples were digested with 15 μg/mL PPL enzyme for 4.5 hours at room temperature, followed by 30 minutes of heat inactivation at 85° C. Each sample was analyzed for PS20 concentration using high performance liquid chromatography with an inline evaporative light scattering detector. Samples were then placed at 5° C. overnight to allow for the formation of particles and were analyzed for visible and subvisible particles as described previously.
The effect of the HP-β-CD concentration at different PS20 concentrations on the enzymatic degradation of PS20 was assessed to identify optimal concentrations for inhibition of enzymatic PS20 degradation. To evaluate the dependence of PS20 degradation on HP-β-CD concentration, the PS20 content was determined using RP-ELSD for triplicate samples containing different HP-β-CD concentrations at various PS20 concentrations. Samples containing 0.005% (FIG. 14A), 0.02% (FIG. 14B), 0.1% (FIG. 14C), and 0.4% PS20 (FIG. 14D) were digested using 15 μg/mL of PPL enzyme for 4.5 hours at room temperature in protein-free samples containing no excipient (control), 0, 0.5, 5, and 15% (w/v) HP-β-CD. PPL was added to each of the treatment solutions at a ratio of 75 […], with an equivalent volume of buffer added to the control solutions to determine the effect of HP-β-CD to polysorbate ratio on enzymatic degradation. Digestion was stopped by heat inactivation in an 85° C. water bath for 30 minutes. Each sample was analyzed for PS20 concentration using high performance liquid chromatography with an inline evaporative light scattering detector as described above. Samples were then placed at 5° C. overnight to allow for the formation of particles and placed on ice during analysis for visible and subvisible particles as described above.

Molecule: 2-hydroxypropyl-α-cyclodextrin [HP-α-CD]
- decrease in PS20: 1%
- inhibitory effect on enzymatic PS20 degradation (in words): significant inhibitory effects; also recorded: able to prevent enzymatic degradation of PS20

Molecule: 2-hydroxypropyl-β-cyclodextrin [HP-β-CD]
- HP-β-CD concentration required to fully inhibit PS20 degradation (0.005% PS20, PPL 4.5 hours): 0.5%
- decrease in PS20: 7%
- inhibitory effect on enzymatic PS20 degradation (in words): significant inhibitory effects; also recorded: able to prevent enzymatic degradation of PS20
- HP-β-CD concentration required to fully inhibit PS20 degradation (0.1% PS20, PPL 4.5 hours): 15%
- HP-β-CD:PS20 ratio required to inhibit enzymatic PS20 degradation (PPL 4.5 hours, across PS20 and HP-β-CD concentrations): ≥ 37.5 w/w
- PS20 remaining (Relative %) ([HP-β-CD]/[PS20] wt/wt ratio 0.5 (mole ratio 0.4), PPL 4.5 hours): 41.4 Relative %
- PS20 remaining (Relative %) ([HP-β-CD]/[PS20] wt/wt ratio 1.25 (mole ratio 1.1), PPL 4.5 hours): 41.2 Relative %
- PS20 remaining (Relative %) ([HP-β-CD]/[PS20] wt/wt ratio 2.5 (mole ratio 2.2), PPL 4.5 hours): 44.0 Relative %
- PS20 remaining (Relative %) ([HP-β-CD]/[PS20] wt/wt ratio 5 (mole ratio 4.35), PPL 4.5 hours): 65.3 Relative %
- PS20 remaining (Relative %) ([HP-β-CD]/[PS20] wt/wt ratio 12.5 (mole ratio 10.9), PPL 4.5 hours): 86.4 Relative %
- PS20 remaining (Relative %) ([HP-β-CD]/[PS20] wt/wt ratio 25 (mole ratio 21.8), PPL 4.5 hours): 90.3 Relative %
- PS20 remaining (Relative %) ([HP-β-CD]/[PS20] wt/wt ratio 37.5 (mole ratio 32.6), PPL 4.5 hours): 106.7 Relative %
- PS20 remaining (Relative %) ([HP-β-CD]/[PS20] wt/wt ratio 50 (mole ratio 43.5), PPL 4.5 hours): 98.6 Relative %
- PS20 remaining (Relative %) ([HP-β-CD]/[PS20] wt/wt ratio 100 (mole ratio 87.0), PPL 4.5 hours): 93.9 Relative %
- PS20 remaining (Relative %) ([HP-β-CD]/[PS20] wt/wt ratio 150 (mole ratio 130.5), PPL 4.5 hours): 108.3 Relative %
- PS20 remaining (Relative %) ([HP-β-CD]/[PS20] wt/wt ratio 250 (mole ratio 217.6), PPL 4.5 hours): 101.9 Relative %
- PS20 remaining (Relative %) ([HP-β-CD]/[PS20] wt/wt ratio 750 (mole ratio 652.7), PPL 4.5 hours): 104.2 Relative %
- PS20 remaining (Relative %) ([HP-β-CD]/[PS20] wt/wt ratio 1000 (mole ratio 870.2), PPL 4.5 hours): 104.3 Relative %
- PS20 remaining (Relative %) ([HP-β-CD]/[PS20] wt/wt ratio 3000 (mole ratio 2610.6), PPL 4.5 hours): 112.4 Relative %

Molecule: 2-hydroxypropyl-γ-cyclodextrin [HP-γ-CD]
- inhibitory effect on enzymatic PS20 degradation (in words): able to prevent enzymatic degradation of PS20

Molecule: OC[C@H]1O[C@@](CO)(O[C@H]2O[C@H](CO)[C@@H](O)[C@H](O)[C@H]2O)[C@@H](O)[C@@H]1O [sucrose, reference compound]
- decrease in PS20: 58%
- inhibitory effect on enzymatic PS20 degradation (in words): does not have an inhibitory effect
